Laboratory results as given in patent US6562978B1, “Cyclic amine compounds as CCR5 antagonists” (Takeda Chemical Industries, Ltd., priority 1999, dated 2003).
Structures can show the parent of a compound that is named as a salt.

Test system: HIV-1 Ba-L
Assay: Inhibitory effect on HIV-1 infection to MAGI-CCR5 cell (blue cell count, β-galactosidase)
Type: cell-based
Details: Human immunodeficiency virus 1, BAL, 48 h; final concentration of Test Compound 0.032 μM; MAGI-CCR5 cells; 300PFU HIV-1 Ba-L; 37° C. for 2 days

| Compound | inhibition at 0.032 µM [%] |
| --- | --- |
| CC(=O)N1CCC(C(=O)N(CCCN2CCC(Cc3ccc(F)cc3)CC2)c2ccc(Cl)c(Cl)c2)CC1 [Example 468, 1-Acetyl-N-(3,4-dichlorophenyl)-N-{3-[4-(4-fluorobenzyl)-1-piperidinyl]propyl}-4-piperidinecarboxamide Hydrochloride] | 97 |
| CC(=O)N1CCC(C(=O)N(CCCN2CCC(Sc3nc4ccccc4s3)CC2)c2cccc(Cl)c2)CC1 [Example 469, 1-Acetyl-N-(3-chlorophenyl)-N-[3-[4-(2-benzthiazolylthio)-1-piperidinyl]propyl]-4-piperidinecarboxamide Hydrochloride] | 96 |

Target: T1, human CCR5 (Homo sapiens, UniProt P51681)
T1 construct: expressed in transfected cells; whole cells in the well
T1 sequence (P51681 whole entry): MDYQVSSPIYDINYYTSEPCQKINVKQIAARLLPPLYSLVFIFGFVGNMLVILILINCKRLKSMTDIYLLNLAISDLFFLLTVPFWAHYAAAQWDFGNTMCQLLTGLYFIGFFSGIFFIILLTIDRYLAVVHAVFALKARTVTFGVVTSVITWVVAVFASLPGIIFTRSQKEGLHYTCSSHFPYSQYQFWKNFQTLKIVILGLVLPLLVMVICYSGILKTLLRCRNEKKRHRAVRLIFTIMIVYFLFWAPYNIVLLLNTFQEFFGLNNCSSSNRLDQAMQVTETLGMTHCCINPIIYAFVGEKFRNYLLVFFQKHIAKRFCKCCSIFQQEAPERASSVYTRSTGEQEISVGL
Assay: CCR5 binding assay: inhibition of [125I]-RANTES binding to CHO/CCR5 cells
Details: 1.0 μM test compound, 100 pM [125I]-RANTES, room temperature 40 minutes, read-out: Inhibition Rate (%) at 1.0 μM
Experimental: (1) Cloning of Human CCR5 Chemokine Receptor
Cloning of CCR5 gene was carried out by PCR (polymerase chain reaction) from human spleen cDNA. With using 0.5 ng of spleen cDNA (Toyobo, QUICK-Clone cDNA) as template, PCR was performed in DNA Thermal Cycler 480 (Perkin-Elmer) (reaction conditions: 30 cycles of 95° C. for 1 minute, 60° C. for 1 minute, and 75° C. for 5 minutes) by adding primer set, 5′-[…]-3′ (25 pmol) and 5′-[…]-3′ (25 pmol), which were designed referring to nucleotide sequence of CCR5 gene reported by Samson et al. (Biochemistry, 35(11), 3362-3367 (1996)) and by using TaKaRa EX Taq (Takara Shuzo). The resultant PCR product was subjected to agarose gel electrophoresis to collect about 1.0 kb DNA fragment, which was subjected to Original TA Cloning Kit (Funakoshi) to carry out cloning of CCR5 gene.
(2) Preparation of Plasmid for Expression of Human […]
The plasmid obtained in the above (1) was digested with restriction enzymes XbaI (Takara Shuzo) and BamHI (Takara Shuzo) and subjected to agarose gel electrophoresis to collect about 1.0 kb DNA fragment. The DNA fragment was mixed with plasmid pcDNA3.1 (Funakoshi) for expression in animal cells, said plasmid being digested with XbaI and BamHI, and they were ligated with DNA Ligation Kit Ver.2 (Takara Shuzo). The resulting plasmid was subjected to transformation of competent cell of E. coli JM109 (Takara Shuzo) to obtain plasmid pCKR5.
(3) Introduction of Plasmid for Expression of Human CCR5 into CHO-K1 Cell and Expression of said Plasmid in CHO-KY Cell
CHO-K1 cells were grown in 750 ml of tissue culture flask (Becton Dickinson) using Ham's F12 medium (Nihon Pharmaceutical) containing 10% fetal calf serum (Life Tech Oriental) and took off with 0.5 g/L trypsin-0.2 g/L EDTA (Life Tech Oriental). The cells were washed with PBS (Life Tech Oriental), centrifuged (1000 rpm, 5 minutes), and suspended in PBS. With using Gene Pulser (Bio-Rad Laboratories), DNA was introduced into the cells under the conditions shown below. That is, to the cuvette of 0.4 cm gap were added 8×10^6 cells and 10 μg of plasmid pCKR5 for expression of human CCR5, and electroporation was carried out under 0.25 kV of voltage and […] of capacitance. The cells were transferred into Ham's F12 medium (Nihon Pharmaceutical) containing 10% fetal calf serum, and cultivated for 24 hours. The cells were again took off and centrifuged, and suspended in Ham's F12 medium (Nihon Pharmaceutical) containing 10% fetal calf serum and 500 μg/ml of geneticin (Life Tech Oriental). The suspension was diluted to give 10^4 cells/ml of the suspension, which was inoculated on 96 well plate (Becton Dickinson) to give geneticin resistant cells. The resulting geneticin resistant cells were cultivated in 96 well plate (Becton Dickinson), and cells expressing CCR5 were selected from the geneticin resistant cells. That is, in assay buffer (Ham's F12 medium containing 0.5% BSA and 20 mM HEPES (Wako Pure Chemical, pH7.2) to which was added 200 pM of [^125I]-RANTES (Amersham) as ligand, binding reaction was carried out at room temperature for 40 minutes, and the buffer was washed with cooled PBS. To the buffer was added 50 μl/well of 1M NaOH, and the mixture was stirred. Radioactivity was determined with γ-counter to select CHO/CCR5 cells which specifically bind to the ligand.
(4) Evaluation of Test Compounds Based on CCR5 Antagonistic Activity
The CHO/CCR5 were inoculated on 96 well microplate (5×10^4 cells/well) and cultivated for 24 hours. The medium was removed by means of suction, and to each well was added assay buffer containing Test Compound (191) and then 100 pM of [^125I]-RANTES (Amersham) as ligand. Binding assay was carried out at room temperature for 40 minutes, and assay buffer was removed by means of suction. Each well was washed twice with cooled PBS, and 200 μl of Microscint-20 (Packard Instrument, Inc.) was added to each well.

| Compound | inhibition at 1 µM [%] |
| --- | --- |
| CS(=O)(=O)N1CCC(C(=O)N(CCCN2CCC(Cn3cnc4ccccc43)CC2)c2ccc(Cl)c(Cl)c2)CC1 [Example 261, N-{3-[4-(1H-Benzimidazol-1-ylmethyl)-1-piperidinyl]propyl}-N-(3,4-dichlorophenyl)-1-methylsulfonyl-4-piperidinecarboxamide] | 98 |
| CS(=O)(=O)N1CCC(C(=O)N(CCCN2CCC(Cc3ccc(N4CCOCC4)cc3)CC2)c2ccc(Cl)c(Cl)c2)CC1 [Example 292, N-(3,4-Dichlorophenyl)-1-(methylsulfonyl)-N-{3-[4-(4-morpholinobenzyl)-1-piperidinyl]propyl}-4-piperidinecarboxamide] | 97 |
| CC(=O)N1CCC(C(=O)N(CCCN2CCC(Cc3ccc(-n4cnnn4)cc3)CC2)c2ccc(Cl)c(Cl)c2)CC1 [Example 300, 1-Acetyl-N-(3,4-dichlorophenyl)-N-(3-{4-[4-(1H-tetrazol-1-yl)benzyl]-1-piperidinyl}propyl)-4-piperidinecarboxamide] | 100 |
| CC(=O)N1CCC(C(=O)N(CCCN2CCC(Cc3ccccc3)CC2)Cc2ccc(Cl)cc2)CC1 [Example 40, 1-Acetyl-N-[3-(4-benzyl-1-piperidinyl)propyl]-N-(4-chlorobenzyl)-4-piperidinecarboxamide Trifluoroacetate] | 98 |
| CC(=O)Nc1ccc(C(=O)N2CCC(C(=O)N(CCCN3CCC(Cc4ccc(F)cc4)CC3)c3ccc(Cl)c(Cl)c3)CC2)cc1 [Example 158, 1-[4-(Acetylamino)benzoyl]-N-(3,4-dichlorophenyl)-N-{3-[4-(4-fluorobenzyl)-1-piperidinyl]propyl}-4-piperidinecarboxamide Trifluoroacetate] | 97 |
| CC(=O)N1CCC(C(=O)N(CCCN2CCC(C#N)(Cc3ccccc3)CC2)c2cccc(Cl)c2)CC1 [Example 291, 1-Acetyl-N-[3-(4-benzyl-4-cyano-1-piperidinyl)propyl]-N-(3-chlorophenyl)-4-piperidinecarboxamide] | 84 |
| CS(=O)(=O)N1CCC(C(=O)N(CCCN2CCC(Cc3ccc(-n4cnnn4)cc3)CC2)c2ccc(Cl)c(Cl)c2)CC1 [Example 309, N-(3,4-Dichlorophenyl)-1-(methylsulfonyl)-N-(3-{4-[4-(1H-tetrazol-1-yl)benzyl]-1-piperidinyl}propyl)-4-piperidinecarboxamide] | 92 |
| CC(=O)N1CCC(C(=O)N(CCCN2CCC(Cc3nccs3)CC2)c2cccc(Cl)c2)CC1 [Example 168, 1-Acetyl-N-(3-chlorophenyl)-N-{3-[4-(2-thiazolylmethyl)-1-piperidinyl]propyl}-4-piperidinecarboxamide Ditrifluoroacetate] | 82 |
| CC(=O)N1CCC(C(=O)N(CCCN2CCC(Cc3ccc(NS(C)(=O)=O)cc3)CC2)c2ccc(Cl)c(Cl)c2)CC1 [Example 304, 1-Acetyl-N-(3,4-dichlorophenyl)-N-[3-(4-{4-[(methylsulfonyl)amino]benzyl}-1-piperidinyl)propyl]-4-piperidinecarboxamide] | 99 |
| CC(=O)N1CCC(C(=O)N(CCCN2CCC(Sc3cnccn3)CC2)c2cccc(Cl)c2)CC1 [Example 79, 1-Acetyl-N-(3-chlorophenyl)-N-[3-[4-(2-pyrazinylthio)-1-piperidinyl]propyl]-4-piperidinecarboxamide Trifluoroacetate] | 90 |
| CC(=O)N1CCC(C(=O)N(CCCN2CCC(Cc3ccccc3)CC2)c2ccccc2)CC1 [Example 3, 1-Acetyl-N-[3-(4-benzyl-1-piperidinyl)propyl]-N-phenyl-4-piperidinecarboxamide] | 98 |

The next lines start with the values.

| inhibition at 1 µM [%] | Compound |
| --- | --- |
| 95 | CS(=O)(=O)N1CCC(C(=O)N(CCCN2CCC(Cc3ccc(C(N)=O)cc3)CC2)c2ccc(Cl)c(Cl)c2)CC1 [Example 362, N-(3-{4-[4-(Aminocarbonyl)benzyl]-1-piperidinyl}propyl)-N-(3,4-dichlorophenyl)-1-(methylsulfonyl)-4-piperidinecarboxamide] |
| 99 | Cc1ccc(N(CCCN2CCC(Cc3ccc(C(N)=O)cc3)CC2)C(=O)C2CCN(S(C)(=O)=O)CC2)cc1Cl [Example 470, N-(3-{4-[4-(Aminocarbonyl)benzyl]-1-piperidinyl}propyl)-N-(3-chloro-4-methylphenyl)-1-(methylsulfonyl)-4-piperidinecarboxamide] |
| 97 | CC(=O)N1CCC(C(=O)N(CCCN2CCC(Cc3ccc(C(N)=O)cc3)CC2)c2ccc(C)c(Cl)c2)CC1 [Example 376, 1-Acetyl-N-(3-{4-[4-(aminocarbonyl)benzyl]-1-piperidinyl}propyl)-N-(3-chloro-4-methylphenyl)-4-piperidinecarboxamide] |
| 98 | CS(=O)(=O)c1ccc(CC2CCN(CCCN(C(=O)C3CCN(S(C)(=O)=O)CC3)c3ccc(Cl)c(Cl)c3)CC2)cc1 [Example 420, N-(3,4-Dichlorophenyl)-1-(methylsulfonyl)-N-(3-{4-[4-(methylsulfonyl)benzyl]-1-piperidinyl}propyl)-4-piperidinecarboxamide Hydrochloride] |
| 92 | CS(=O)(=O)c1ccc(OC2CCN(CCCN(C(=O)C3CCN(S(C)(=O)=O)CC3)c3ccc(Cl)c(Cl)c3)CC2)cc1 [Example 374, N-(3,4-Dichlorophenyl)-1-(methylsulfonyl)-N-(3-{4-[4-(methylsulfonyl)phenoxy]-1-piperidinyl}propyl)-4-piperidinecarboxamide] |
| 98 | CCN(C1CCN(CCCN(C(=O)C2CCN(S(C)(=O)=O)CC2)c2ccc(Cl)c(Cl)c2)CC1)S(=O)(=O)c1ccc(S(C)(=O)=O)cc1 [Example 341, N-(3,4-Dichlorophenyl)-N-{3-[4-(ethyl{[4-(methylsulfonyl)phenyl]sulfonyl}amino)-1-piperidinyl]propyl}-1-(methylsulfonyl)-4-piperidinecarboxamide] |
| 100 | CS(=O)(=O)c1ccc(S(=O)(=O)C2CCN(CCCN(C(=O)C3CCN(S(C)(=O)=O)CC3)c3ccc(Cl)c(Cl)c3)CC2)cc1 [Example 334, N-(3,4-Dichlorophenyl)-1-(methylsulfonyl)-N-[3-(4-{[4-(methylsulfonyl)phenyl]sulfonyl}-1-piperidinyl)propyl]-4-piperidinecarboxamide] |
| 97 | Cc1cc(NS(=O)(=O)c2ccc(CC3CCN(CCCN(C(=O)C4CCN(S(C)(=O)=O)CC4)c4ccc(Cl)c(Cl)c4)CC3)cc2)no1 [Example 372, N-(3,4-Dichlorophenyl)-N-{3-[4-(4-{[(5-methyl-3-isoxazolyl)amino]sulfonyl}benzyl)-1-piperidinyl]propyl}-1-(methylsulfonyl)-4-piperidinecarboxamide] |
